These results are taken from the NIST ThermoML archive (doi:10.1021/acs.jced.6b00855).

As usually defined, the refractive index is the speed of light in vacuum divided by its phase velocity in the sample.

This data set in a line: refractive index (Na D-line) (dimensionless); wn = mass fraction of the nth substance listed. The note with it: 288.15 K, 100 kPa, Liquid, Standard Abbe refractometry.

Numbers after ± are expanded uncertainties.

In the case of `[Br-].[Li+]` [lithium bromide] + O, the refractive index (w1 = 0.5929) was 1.4744 ± 0.0004.

`[Cl-].[Li+]` [lithium chloride] + O: the refractive index (w1 = 0.4395) was found to be 1.4343 ± 0.0004.

Take `[Ca+2].[Cl-].[Cl-]` [calcium chloride] + O: the refractive index (w1 = 0.4075) came to 1.4428 ± 0.0004.

For the molecule `[Br-].[Br-].[Ca+2]` [calcium bromide] + O, where the note is “w1 = 0.5794”, the refractive index is 1.4892 ± 0.0004.
